# Test results: publication PMC6148296 (Scientific Reports, 2018)
# Values joined by “and” are separate entries in the source; they are usually repeats but may differ in a detail not shown here. Equal values may be shown once. “Also recorded” adds a separate entry of the source. Read-outs that look alike come from different tables or passages of the source. Marks after values point to notes of the source that are not given here.
# How the values were obtained:
# [1] = target: T1, rat μ-opioid receptor (Rattus norvegicus, UniProt P33535); experiment: [35S]GTPγS binding assay, MOR; assay type: biochemical; conditions: for functional profile at μ opioid receptor: G protein activation; for Kb: read-out: Antagonist activity MOR Ke
# T1 construct: expressed in transfected cells; membranes prepared
# [2] = target: T1, rat μ-opioid receptor; experiment: Receptor binding assay, [3H]DAMGO competition
# [3] = target: T2, human κ-opioid receptor (Homo sapiens, UniProt P41145); experiment: [35S]GTPγS binding assay, KOR; assay type: biochemical
# T2 construct: expressed in transfected cells; membranes prepared
# [4] = tested on: mice; experiment: Formalin test; assay type: in vivo; conditions: for ED50: Mus musculus, 0.25 h
# Description: (§1) Kunming strain male and female mice weighing 20 to 24 g were obtained from the Laboratory Animal Center, Chinese Academy of Sciences (Shanghai, China). Mice were housed in groups in a room maintained in a 12/12 h light/dark cycle in a temperature controlled environment with free access to food and water. All research protocols were approved by the Animal Care and Use Committee of Shanghai Institute of Materia Medica, Chinese Academy of Sciences. All experimental procedures were in strict accordance with the National Institutes of Health Guide for the Care and Use of Laboratory Animals.
# The formalin test was performed according to our previous work[35]. In brief, the amount of time that mice spent licking or flinching the injected hind paw was recorded after injected with 20 μl 1.0% formalin at the plantar surface of the right hind paw. The mice were observed fro 60 min. The first 10 min was recorded as the phase I, and the rest of time was recorded as phase II. Percentage of analgesia was calculated as 100× (time of control – time of drug)/time of control.
# [5] = tested on: mice; experiment: Hot plate test; assay type: in vivo
# Description: as §1
# Hot plate test was performed according to the method described previously[31],[34],[35]. Briefly, mice were placed on a 55 °C heated surface, the latency to licking or jumping was recorded. The cut-off time of 60 s was used to minimize tissue damage. Before formal study, the nociceptive response of each mouse was measured three times, and the mean of the 2nd and 3rd responses was used as pre-drug latency. The mouse not responding within 20 s was excluded. The percentage antinociception was calculated as 100× [(test latency-predrug latency)/(cut-off time -predrug latency)].
# [6] = tested on: mice; experiment: Abdominal constriction test; assay type: in vivo; conditions: for effect of Dezocine on morphine-induced antinociception: 0.05 mg/kg Dezocine; for ED50: Mus musculus; for effect of antagonist pretreatment on Dezocine-produced antinociception: antagonist 20 mg/kg i.p., 24 h before 0.25 mg/kg Dezocine
# [7] = target: T3, rat δ-opioid receptor (Rattus norvegicus, UniProt P33533); experiment: [35S]GTPγS binding assay, DOR; assay type: biochemical; conditions: read-out: Agonist activity DOR Emax (agonist efficacy at 10 μM)
# T3 construct: expressed in transfected cells; membranes prepared
# [8] = tested on: mice; experiment: Rotorod test (sedation); assay type: in vivo; conditions: for sedative effect, rotarod test: 15 min after injection
# [9] = target: T3, rat δ-opioid receptor; experiment: Receptor binding assay, [3H]DPDPE competition; conditions: read-out: δ binding affinity Ki
# [10] = target: T2, human κ-opioid receptor; experiment: Receptor binding assay, [3H]U69593 competition; conditions: CHO cell membranes, 1.5 nM [3H]U69593; read-out: κ binding affinity Ki
# [11] = tested on: mice; set-up: method as in PMID 18353307, PMID 25816912; conditions: 95% confidence limits in parentheses; cited from earlier work
# [12] = tested on: mice; set-up: method as in PMID 18353307, PMID 25816912; conditions: 95% confidence limits in parentheses; cited from earlier work; remark: listed apart in the source
# [13] = tested on: mice; set-up: method as in PMID 18353307, PMID 25816912; conditions: 95% confidence limits in parentheses; cited from earlier work; remark: listed apart in the source
# [14] = mice, 15 min after drug administration, 95% confidence limits in parentheses
compound,measurement,setting,value
"C[C@@H](NC(=O)[C@@H](N)Cc1ccc(O)cc1)C(=O)NCC(=O)N(C)[C@@H](Cc1ccccc1)C(=O)NCCO [DAMGO, [D-Ala2,N-Me-Phe4,Gly5-ol]-enkephalin]",Emax,"[1]; 0.1 nM [35S]GTPγS, percentage of stimulated binding over basal, read-out: Agonist activity MOR Emax",241 ± 33.8%
same,functional profile at μ opioid receptor,[1],full agonist efficacy
C[C@@]12CCCCC[C@@H](Cc3ccc(O)cc31)[C@@H]2N [Dezocine],selectivity for μ over δ opioid receptors,[2]; from Ki values,273 fold
same,selectivity for μ over κ opioid receptors,[2]; from Ki values,15 fold
same,Ki,[2]; read-out: µ binding affinity Ki,1.46 ± 0.1 nM
same,functional profile at κ opioid receptor,[3]; G protein activation,κ partial agonist
same,Agonist activity KOR Emax (agonist efficacy at 10 μM),"[3]; at 10 μM, % of the maximal stimulation obtained with U50,488 H",33.6 ± 2.4^d %
same,Emax at 10 µM,"[3]; read-out: Agonist activity KOR Emax (agonist efficacy at 10 μM), at 10 μM, % of the maximal stimulation obtained with U50,488 H",33 to 45%
same,Kb,"[3]; rightward shift of U50,488 H concentration-response curve, single dose method, read-out: Antagonist activity KOR Ke",324.1 nM and 324 nM
same,ED50,"[4]; mice, 15 min after drug administration, 95% confidence limits in parentheses, read-out: Antinociception ED50 Formalin test Phase I",0.4 mg/kg
same,ED50,"[4]; mice, 15 min after drug administration, 95% confidence limits in parentheses, read-out: Antinociception ED50 Formalin test Phase II",0.4 mg/kg
same,Antinociception ED50 Formalin test Phase I,[4]; [14],0.4 (0.2–1.0) mg/kg
same,Antinociception ED50 Formalin test Phase II,[4]; [14],0.4 (0.2–0.9) mg/kg
same,"potency relative to morphine, formalin test phase I",[4]; ratio of ED50 values,approximately 13 fold
same,"potency relative to morphine, formalin test phase II",[4]; ratio of ED50 values,9 fold
same,"maximal antinociceptive effect, hot-plate test","[5]; at 7.5 mg/kg, bell-shaped dose-response curve",around 60%
same,duration of consistent high (close to peak) antinociceptive response,"[5]; hot-plate test, time course",up to 1 h
same,onset of antinociceptive action,"[5]; hot-plate test, time course",5 min
same,"maximal antinociception, hot-plate test, whatever the route of administration","[5]; i.v., s.c., or p.o.",around 55%
same,functional profile at μ opioid receptor,[1],μ partial agonist
same,Emax at 10 µM,[1]; read-out: Agonist activity MOR Emax (agonist efficacy at 10 μM),45.8 ± 1.1%
same,Kb,[1],10.4 ± 4.9 nM
same,Kb,"[1]; rightward shift of DAMGO concentration-response curve, single dose method",10.4 nM
same,effect of Dezocine on morphine-induced antinociception,[6]; 0.3 mg/kg morphine,did not affect
same,effect of Dezocine on morphine-induced antinociception,"[6]; 0.4 mg/kg morphine, p < 0.05",significantly decreased; also recorded: significantly inhibited
same,effect of Dezocine co-administration on morphine antinociception,[6]; 0.125 mg/kg Dezocine and 0.3 mg/kg morphine,produced higher antinociception than morphine used alone
same,"effect of Dezocine on U50,488H-induced antinociception","[6]; Dezocine pretreatment, U50,488 H 1.2 mg/kg i.p., without β-FNA",did not inhibit; also recorded: did not affect
same,ED50,"[6]; 0.25 h, mice, 15 min after drug administration, 95% confidence limits in parentheses, read-out: Antinociception ED50 Abdominal constriction test",0.2 mg/kg
same,ED50,"[6]; summary over abdominal constriction and formalin tests, read-out: ED50 values of Dezocine-induced antinociception",0.2 to 0.4 mg/kg
same,"potency relative to morphine, abdominal constriction test",[6]; ratio of ED50 values,4 fold
same,"effect of Dezocine on U50,488H-induced antinociception in the presence of β-FNA","[6]; β-FNA pretreatment, U50,488 H 1.2 mg/kg i.p., p < 0.05",significantly decreased
same,Emax at 10 µM,[7],26.1 ± 1%
same,"sedative effect, rotarod test","[8]; 2.5 mg/kg, trend, p = 0.0881",did not reach significant difference
same,"sedative effect, rotarod test","[8]; 5 mg/kg, p < 0.05 vs saline",produced significant sedation
same,"sedative effect, rotarod test",[8]; 7.5 and 25 mg/kg,the sedative effect diminished
same,dose that produced sedative side effects (ceiling effect),[8]; rotarod test,5 mg/kg
same,Ki,[9],399 ± 43.3 nM
same,Ki,[10],22 ± 1.52 nM
CN1CC[C@]23c4c5ccc(O)c4O[C@H]2[C@@H](O)C=C[C@H]3[C@H]1C5 [Morphine],Antinociception ED50 Hot plate test,[11],6.9 (5.6–8.5)^a mg/kg
same,Antinociception ED50 Formalin test Phase I,[12],5.1 (4.3–5.9)^b mg/kg
same,Antinociception ED50 Formalin test Phase II,[12],3.1 (2.8–3.3)^b mg/kg
same,Antinociception ED50 Abdominal constriction test,[13],0.8 (0.5–1.2)^a mg/kg
"Oc1ccc2c3c1O[C@H]1c4[nH]c5c(c4C[C@@]4(O)[C@@H](C2)N(CC2CC2)CC[C@]314)C[C@@]1(O)[C@H]2Cc3ccc(O)c4c3[C@@]1(CCN2CC1CC1)[C@H]5O4 [nor-BNI, nor-binaltorphimine]",effect of antagonist pretreatment on Dezocine-produced antinociception,[6]; p < 0.05,significantly decreased
"COC(=O)/C=C/C(=O)N[C@@H]1CC[C@@]2(O)[C@H]3Cc4ccc(O)c5c4[C@@]2(CCN3CC2CC2)[C@H]1O5 [β-FNA, β-funaltrexamine]",effect of antagonist pretreatment on Dezocine-produced antinociception,[6]; p < 0.05,significantly decreased
